Data published in patent US20250082589A1, “PHENYLETHYLIDENEHYDRAZINE DIMERS AND METHODS OF USING SAME” (NEURAWELL THERAPEUTICS, priority 2021, published 2025).
Like-named read-outs stand apart in the source and are kept apart here.

How the values were obtained:
[1] = LC-MS analysis of first preparative HPLC fraction in solution and after lyophilization; assay type: physicochemical
Experimental: See also FIG. 22A-C. […] Peak nos. […] Peak nos.
LCMS Method. The LCMS analysis was performed on a Dionex UHPLC Ultimate 3000 with DAD detector/Thermo Scientific ISQ EC-Mass Spectrometer with a wavelength range of 190-350 nm±4 nm. […] The elution scheme shown in Table 12 was used for chromatographic separation. Mobile phase C was 0.05% ammonium hydroxide in water (28.0-30.0% NH3 basis) and Mobile phase D was acetonitrile. The syringe washing solution was 20% MeOH. The MS conditions were a mass range of 100-1000 m/z and scan speed of 12 000 amu/sec.

[2] = 1H NMR stability of azine sample 1830-012 over time and in different deuterated solvents; assay type: physicochemical; details: 1830-012 oil after 3 days storage in −20° C. under argon, new sample measured directly in CDCl3
Experimental: ^1H NMR was employed to probe the stability of azine sample 1830-012 both in terms of time after preparation and in different deuterated solvents.
Additionally, a new sample from the oil obtained in sample 1830-012, in which the oil was prepared after 3 days storage in −20° C. under argon, was prepared and measured directly in CDCl3.
After 3 days, the contamination of the azine with PEH was equal to 9% (the ratio of PEH:Azine was 9:91). […] Thus, it is theorized that purification cannot be accomplished by column chromatography. […] First, EtOH (2.0 mL) was added to 300 mg of crude product 1830-012 and heated to reflux. During refluxing, ˜1.0 mL of EtOH evaporated. The mixture was then slowly cooled to room temperature and then cooled to 0° C. After 3 days at 0° C., no precipitate was observed. In a second attempt, cold EtOH (3.0 mL) was added to 600 mg of crude product 1830-012 and the suspension was stirred at 0° C. for 15 minutes. The white precipitate was filtered (m=131 mg) and washed with small amounts of cold EtOH (see FIG. 5).

[3] = LC-MS analysis of azine yellow precipitate (1830-014) after dissolution and storage; assay type: physicochemical
Experimental: Crystallization was performed on 3.6 g of the crude azine product for 1830-014 using the second method as described above for 1830-012 (FIG. 9). White (m=0.490 g) and yellow (m=1.473 g) precipitates were obtained. LC-MS analysis was also performed on the azine sample obtained as a yellow precipitate (1830-014), with chromatograms obtained directly after dissolution (FIG. 10A) and 27 hours after dissolution (FIG. 10B). The quantitative results are described in Table 12 and Table 13 below. According to the LC-MS analysis using % relative area corresponding to the appropriate MS peaks, the azine sample obtained as a yellow precipitate was 96.24% azine. 27 hours after dissolution, the sample was 91.77% azine. After one month of storage at −20° C. under Argon, the sample was 91.56% azine (data not shown).
LCMS Method. The LCMS analysis was performed on a Dionex UHPLC Ultimate 3000 with DAD detector/Thermo Scientific ISQ EC-Mass Spectrometer with a wavelength range of 190-350 nm±4 nm. Compounds were separated on a Kinetix® 2.6 μm XB—C18 (4.6×50 mm), 110 A, column no. 00B-4496-EO column using gradient elution with a column temperature of 25° C. at a flow of 1.0 mL/min. The elution scheme shown in Table 12 was used for chromatographic separation. Mobile phase C was 0.05% ammonium hydroxide in water (28.0-30.0% NH3 basis) and Mobile phase D was acetonitrile. The syringe washing solution was 20% MeOH. The MS conditions were a mass range of 100-1000 m/z and scan speed of 12 000 amu/sec.

[4] = Stability under acidic or basic UPLC conditions; assay type: physicochemical
Experimental: Batch 1830-001. […] The purity of the sample was 20%.
The peak at R.T.=1.70 min corresponds to the azine according to mass spectrometry (FIG. 13B, bottom panel), and the azine was present at 69% purity.
UPLC Method. The UPLC analysis was performed on a Waters ACQUITY UPLC I-Class PLUS System with a Waters SQ Detector 2 in the wavelength range of 200-400 nm. Compounds were separated on an Acquity UPLC BEH C18 1.7 μm/130 Å (2.1×100 mm) column using gradient elution with a column temperature of 40° C. at a flow of 0.5 mL/min. The elution scheme shown in Table 11 was used for chromatographic separation. Mobile phase A was 0.05% ammonium hydroxide in water (28.0-30.0% NH3 basis) and Mobile phase B was acetonitrile. The syringe washing solution was 50% ACN, 50% water. The MS conditions were a mass range of […] and scan time of 0.15 s.

[5] = pH stability studies at pH 9.2 and pH 7.4; assay type: physicochemical
Description: Batch 1830-013. Although UPLC confirmed the presence of PEH and the azine (FIG. 6A), no signals due to either species were detected in the NMR in CDCl3 (FIG. 6B).

[6] = biological target: T1, MAO-A (Homo sapiens, UniProt P21397); details: cited from earlier work
T1 sequence (P21397 1-527): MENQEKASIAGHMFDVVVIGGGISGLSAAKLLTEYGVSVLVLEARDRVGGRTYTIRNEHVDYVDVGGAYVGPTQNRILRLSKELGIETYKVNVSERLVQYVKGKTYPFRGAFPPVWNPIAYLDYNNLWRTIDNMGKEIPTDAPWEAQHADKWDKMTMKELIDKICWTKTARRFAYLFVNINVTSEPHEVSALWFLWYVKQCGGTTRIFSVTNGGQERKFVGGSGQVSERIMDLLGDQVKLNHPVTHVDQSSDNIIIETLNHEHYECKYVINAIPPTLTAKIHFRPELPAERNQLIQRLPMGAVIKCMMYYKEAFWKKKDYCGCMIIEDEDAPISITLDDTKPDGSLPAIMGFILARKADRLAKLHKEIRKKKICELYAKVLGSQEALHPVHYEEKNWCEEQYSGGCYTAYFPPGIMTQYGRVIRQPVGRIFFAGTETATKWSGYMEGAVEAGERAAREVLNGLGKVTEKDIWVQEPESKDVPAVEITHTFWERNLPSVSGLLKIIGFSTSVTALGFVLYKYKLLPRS

[7] = biological target: T2, MAO-B (Homo sapiens, UniProt P27338); details: cited from earlier work
T2 sequence (P27338 1-520): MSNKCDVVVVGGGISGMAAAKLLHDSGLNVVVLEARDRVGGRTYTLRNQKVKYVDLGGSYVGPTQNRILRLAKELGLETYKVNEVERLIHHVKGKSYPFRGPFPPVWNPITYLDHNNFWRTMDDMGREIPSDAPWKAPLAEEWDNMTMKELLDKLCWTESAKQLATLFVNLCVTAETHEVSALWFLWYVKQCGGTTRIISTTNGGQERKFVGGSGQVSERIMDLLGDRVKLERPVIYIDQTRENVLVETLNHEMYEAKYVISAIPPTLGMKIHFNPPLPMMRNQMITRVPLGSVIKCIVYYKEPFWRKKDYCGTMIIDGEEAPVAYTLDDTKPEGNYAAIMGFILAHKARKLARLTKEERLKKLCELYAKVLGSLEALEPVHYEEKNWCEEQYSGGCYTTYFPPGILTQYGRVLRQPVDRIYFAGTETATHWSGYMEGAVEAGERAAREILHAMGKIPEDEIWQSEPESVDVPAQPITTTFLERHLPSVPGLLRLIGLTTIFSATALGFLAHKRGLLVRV

[8] = PEH stability tests by LCMS (batch 1830-023); assay type: physicochemical; details: stored at −80° C.
Experimental: See also FIG. 27, which illustrates the results from the stability tests of PEH. […] Compounds were separated on a Kinetix® 2.6 μm XB—C18 (4.6×50 mm), 110A, column no. 00B-4496-EO column using gradient elution with a column temperature of 25° C. at a flow of 1.0 mL/min. The elution scheme shown in Table 15 was used for chromatographic separation. Mobile phase C was 0.05% ammonium hydroxide in water (28.0-30.0% NH3 basis) and Mobile phase D was acetonitrile. The syringe washing solution was 20% MeOH. The MS conditions were a mass range of 100-1000 m/z and scan speed of 12 000 amu/sec.

[9] = PEH 1830-003B, NMR
[10] = 1H NMR stability of PEH sample 1830-011 over time and in different deuterated solvents; assay type: physicochemical
Experimental: ^1H NMR was employed to probe the stability of PEH sample 1830-011 both in terms of time after preparation and in different deuterated solvents. […] In Py-d6, about 10% of PEH was transformed to the azine. Additionally, a new sample from the obtained oil in sample 1830-011 in which the oil was prepared after 3 days storage in −20° C. under argon was prepared and measured directly in CDCl3. After 3 days, the contamination of PEH with azine was equal to 18% (the ratio of PEH:Azine was 82:18).

[11] = PEH 1830-011, first fraction after preparative HPLC and lyophilization

C(/Cc1ccccc1)=N\N=C\Cc1ccccc1 [azine, (1E,2E)-1,2-bis(2-phenylethylidene)hydrazine]
stability during lyophilization ([1]; after preparative HPLC): remained stable after lyophilization
% azine by LC-MS relative area ([1]; azine 1830-015, first fraction after lyophilization): 99.93%
% azine by LC-MS relative area ([1]; azine 1830-015, first fraction after preparative HPLC, in solution): 99.61%
contamination of the azine with PEH [2]: 9%
% azine by LC-MS relative area ([3]; yellow precipitate 1830-014, 27 hours after dissolution): 91.77%
% azine by LC-MS relative area ([3]; yellow precipitate 1830-014, after one month of storage at −20° C. under Argon): 91.56%
% azine by LC-MS relative area ([3]; yellow precipitate 1830-014, directly after dissolution): 96.24%
stability in acidic conditions (UPLC) ([4]; acidic conditions): not stable in acidic conditions
stability in basic conditions (UPLC) ([4]; basic conditions, sample 1830-001): stable in basic conditions
pH stability ([5]; pH 7.4): undergoes rapid hydrolysis to the aldehyde
pH stability ([5]; pH 9.2): stable at pH 9.2

NN=CCc1ccccc1 [PEH, phenylethylidenehydrazine]
stability during lyophilization [1]: undergoes decomposition during lyophilization
% PEH by LCMS [1, 11]: 12.70%
% azine in PEH sample by LCMS [1, 11]: 85.89%
% PEH by LCMS ([1]; PEH 1830-011, first fraction after preparative HPLC, solution, before lyophilization): 92.66%
% azine in PEH sample by LCMS ([1]; PEH 1830-011, first fraction in solution after preparative HPLC): 4.14%
inhibition of MAO-A [6]: weak and transient inhibitor
inhibition of MAO-B [7]: weak and transient inhibitor
Purity of PEH (summarized isomers), stability test ([8]; Extract (liq) in chloroform, after 1 day): 97.36
Purity of PEH (summarized isomers), stability test ([8]; Extract (liq) in chloroform, after 2 days): 97.86
Purity of PEH (summarized isomers), stability test ([8]; Extract (liq) in chloroform, after 3 days): 97.82
Purity of PEH (summarized isomers), stability test ([8]; Extract (liq) in chloroform, after 4 days): 97.65
Purity of PEH (summarized isomers), stability test ([8]; Extract (liq) in chloroform, after 7 days): 96.14
Purity of PEH (summarized isomers), stability test ([8]; Extract (liq) in chloroform, after reaction): 98.49
Purity of PEH (summarized isomers), stability test ([8]; solid (concentrated material), after 1 day): 68.46
Purity of PEH (summarized isomers), stability test ([8]; solid (concentrated material), after 2 days): 69.82
Purity of PEH (summarized isomers), stability test ([8]; solid (concentrated material), after 3 days): 64.26
Purity of PEH (summarized isomers), stability test ([8]; solid (concentrated material), after 4 days): 66.89
Purity of PEH (summarized isomers), stability test ([8]; solid (concentrated material), after 7 days): 67.38
Purity of PEH (summarized isomers), stability test ([8]; solid (concentrated material), after reaction): 81.17
pH stability ([5]; pH 7.4): the azine and the aldehyde are formed
pH stability ([5]; pH 9.2): stable at pH=9.2
level of azine impurity during drying ([9]; after drying for 15 min): 7%
level of azine impurity during drying ([9]; after drying for 3 hours): 22%
contamination of PEH with azine ([10]; 1830-011 oil after 3 days storage in −20° C. under argon, new sample measured directly in CDCl3): 18%
PEH transformed to the azine ([10]; PEH sample 1830-011 in Py-d6): about 10%
